Results reported in patent US20210087217A1, “NUCLEOTIDE HEMI-SULFATE SALT FOR THE TREATMENT OF HEPATITIS C VIRUS” (Atea Pharmaceuticals, Inc., priority 2017, published 2021).
“Also recorded” adds a separate entry of the source. Counter-ions that a name gives are not always drawn.

Assay: Stability under refrigerator conditions (5 ± 3° C.) of Compound 2
Type: physicochemical
Method: Three conditions were tested: accelerated stability (40 2° C./75±5% RH) over a 6-month time period, ambient stability (25±2° C./60±5% RH) over a 9-month period, and stability under refrigerator conditions (5 3° C.) over a 9-month time period. The results for accelerated stability, ambient stability, and refrigerator conditions are shown in Table 23, Table 24, and Table 25, respectively.
The only impurities detected even after 9 months were those from related substance 1 and water.

Structure (SMILES): CNc1nc(N)nc2c1ncn2[C@@H]1O[C@H](CO[P@@](=O)(N[C@@H](C)C(=O)OC(C)C)Oc2ccccc2)[C@@H](O)[C@@]1(C)F [Compound 2, hemi-sulfate salt of isopropyl((S)-(((2R,3R,4R,5R)-5-(2-amino-6-(methylamino)-9H-purin-9-yl)-4-fluoro-3-hydroxy-4-methyltetrahydrofuran-2-yl)methoxy)(phenoxy)phosphoryl)-L-alaninate]
- Total impurities of related substance 1 (5° C., after 9 months): 0.01%
- Water content (5° C., after 9 months): 0.32%
- Appearance (5 ± 3° C., 0 month): White
- Assay (5 ± 3° C., 0 month): 98.8%
- IR (5 ± 3° C., 0 month): correspond
- Related Substance 1 Any other single impurity (5 ± 3° C., 0 month): 0.01%
- Related Substance 1 Total Impurities (5 ± 3° C., 0 month): 0.01%
- Water (5 ± 3° C., 0 month): 0.45%
- Appearance (5 ± 3° C., 1st month): White
- Assay (5 ± 3° C., 1st month): 101.1%
- Related Substance 1 Any other single impurity (5 ± 3° C., 1st month): 0.01%
- Related Substance 1 Total Impurities (5 ± 3° C., 1st month): 0.01%
- Water (5 ± 3° C., 1st month): 0.19%
- Appearance (5 ± 3° C., 3rd month): White
- Assay (5 ± 3° C., 3rd month): 100.2%
- IR (5 ± 3° C., 3rd month): correspond
- Related Substance 1 Any other single impurity (5 ± 3° C., 3rd month): 0.01%
- Related Substance 1 Impurity B (5 ± 3° C., 3rd month): 0.01%
- Related Substance 1 Total Impurities (5 ± 3° C., 3rd month): 0.03%
- Water (5 ± 3° C., 3rd month): 0.32%
- Appearance (5 ± 3° C., 6th month): White
- Assay (5 ± 3° C., 6th month): 98.6%
- IR (5 ± 3° C., 6th month): correspond
- Related Substance 1 Any other single impurity (5 ± 3° C., 6th month): 0.01%
- Related Substance 1 Total Impurities (5 ± 3° C., 6th month): 0.03%
- Water (5 ± 3° C., 6th month): 0.42%
- Appearance (5 ± 3° C., 9th month): Off-white
- Assay (5 ± 3° C., 9th month): 101.4%
- IR (5 ± 3° C., 9th month): correspond
- Related Substance 1 Any other single impurity (5 ± 3° C., 9th month): 0.01%
- Related Substance 1 Total Impurities (5 ± 3° C., 9th month): 0.01%
- Water (5 ± 3° C., 9th month): 0.32%
- Stability (refrigerator conditions (5° C.), 9 months): very chemically stable; also recorded: stable
